What follows are compounds tested against T1, YtfB (his6-YtfB, C-terminal domain) (Escherichia coli, UniProt P39310) (assay: surface plasmon resonance, steady state affinity, YtfB immobilised by amine coupling on CM5). Details: PBS running buffer.
T1 construct: extracellular C-terminal region, residues 52-212 incl; LysM-like (OapA) domain; His6 tag kept; pETMCSIII-ytfB, expressed in E. coli BL21 AI
T1 sequence (P39310 52-212): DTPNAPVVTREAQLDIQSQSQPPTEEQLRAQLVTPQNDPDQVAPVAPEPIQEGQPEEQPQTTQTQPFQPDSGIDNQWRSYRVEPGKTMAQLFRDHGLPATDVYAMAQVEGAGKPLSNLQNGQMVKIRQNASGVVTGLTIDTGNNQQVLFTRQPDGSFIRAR
Type: binding
For `CC(=O)N[C@H]1[C@H](O[C@H]2[C@H](O)[C@@H](NC(C)=O)C(O)O[C@@H]2CO)O[C@H](CO)[C@@H](O[C@@H]2O[C@H](CO)[C@@H](O[C@@H]3O[C@H](CO)[C@@H](O)[C@H](O)[C@H]3NC(C)=O)[C@H](O)[C@H]2NC(C)=O)[C@@H]1O` (stereo partly shown) [tetraose (N’acetylglucosamine)], the Kd was 463 ± 71 nM.
In the case of `OC[C@H]1O[C@H](O[C@H]2[C@H](O)[C@@H](CO)OC(O)[C@H]2O)[C@@H](O)[C@@H](O)[C@@H]1O` (stereo partly drawn) [5D, α1–3mannobiose], the Kd is reported as 345 nM.
`OC[C@H]1O[C@H](O[C@@H]2C(O)O[C@H](CO)[C@@H](O)[C@@H]2O)[C@@H](O)[C@@H](O)[C@@H]1O` (stereo partly drawn) [5C, α1–2mannobiose] showed a Kd of 43.3 nM.
`CC(=O)N[C@H]1[C@H](O[C@H]2[C@H](O)[C@@H](NC(C)=O)[C@H](O[C@H]3[C@H](O)[C@@H](NC(C)=O)C(O)O[C@@H]3CO)O[C@@H]2CO)O[C@H](CO)[C@@H](O[C@@H]2O[C@H](CO)[C@@H](O[C@@H]3O[C@H](CO)[C@@H](O[C@@H]4O[C@H](CO)[C@@H](O)[C@H](O)[C@H]4NC(C)=O)[C@H](O)[C@H]3NC(C)=O)[C@H](O)[C@H]2NC(C)=O)[C@@H]1O` (stereo partly shown) [4D, hexaacetylchitohexaose] was tested, and the Kd was 24.8 ± 5.3 nM.
With `OC[C@H]1O[C@H](O[C@H]2[C@H](O)[C@H](O)C(O)O[C@@H]2CO)[C@@H](O)[C@@H](O)[C@@H]1O` (stereo partly drawn) [5E, α1–4mannobiose] the Kd was 31.2 nM.
With `CC(=O)N[C@H]1[C@H](O[C@H]2[C@H](O)[C@@H](NC(C)=O)C(O)O[C@@H]2CO)O[C@H](CO)[C@@H](O[C@@H]2O[C@H](CO)[C@@H](O)[C@H](O)[C@H]2NC(C)=O)[C@@H]1O` (stereo partly shown) [4B, GlcNAcβ1-4GlcNAcβ1-4GlcNAc] the Kd was 3300 ± 2130 nM.

Same assay, conditions: PBS running buffer; read-out: KD
With `OC[C@H]1O[C@H](OC[C@H]2OC(O)[C@@H](O)[C@@H](O)[C@@H]2O)[C@@H](O)[C@@H](O)[C@@H]1O` (stereo partly drawn) [5F, α1–6 mannobiose] the Kd was 112 nM.
